55 molecules from patent US10940139B2, “Compounds that interact with the Ras superfamily for the treatment of cancers, inflammatory diseases, rasopathies, and fibrotic disease” (Shy Therapeutics LLC, priority 2017, dated 2021) can be followed below.

In experiment [1] the test system is IL6 production in RAW 264.7 macrophage cell line. In words: Mouse IL6 quantification assay (LPS-stimulated macrophages, ELISA). Type of experiment: cell-based. The conditions noted are these: RAW264.7, RAW 264.7 murine leukemia virus transformed macrophage cell lines, LPS stimulation, read-out: IL-6 % Inhibition at 30 μM.
Experiment [2] has as its system TNFα production in RAW 264.7 macrophage cell line. The experiment can be described thus: Mouse TNF alpha quantification assay (LPS-stimulated macrophages, ELISA). Type of experiment: cell-based. The following applies: RAW264.7, RAW 264.7 murine leukemia virus transformed macrophage cell lines, LPS stimulation, read-out: TNF-α % Inhibition at 30 μM.

Regarding `COc1ccc(N2CCN(C(=O)c3csc4c(O)nc(-c5ccccn5)nc34)CC2)cc1O` [drawing 2213], the inhibition at 30 µM is 26 to 50% in experiment [1] and 0% in experiment [2].

On to `CC(C)Oc1ccc(-c2csc3c(O)nc(-c4nccn4C)nc23)cn1`, for which the inhibition at 30 µM in experiment [1] and in experiment [2] was 76 to 100% throughout.

`CCN(CC)CCOc1nc(-c2nccn2C)nc2sc(-c3ccccc3)c(-c3ccccc3)c12` [drawing 2400]: the inhibition at 30 µM in experiment [1] and in experiment [2] was 76 to 100% each time.

`Oc1nc(-c2ccccn2)nc2c(C3CCCCC3)csc12` [drawing 2336]: the inhibition at 30 µM in experiment [1] and in experiment [2] was 0% in each case.

`OCC1(c2ccc(-c3nc(-c4ccccn4)nc(-c4ccc(C5(CO)CC5)cc4)c3Oc3ccccc3)cc2)CC1` [drawing 2359]: the inhibition at 30 µM in experiment [1] and in experiment [2] was 0% each time.

Turning to `Oc1nc(-c2ncccn2)nc2c(-c3cccc(C(F)(F)F)c3)csc12` [drawing 2435], the values for the inhibition at 30 µM in experiment [1] and in experiment [2] were 1 to 25% and 26 to 50%, respectively.

Turning to `Cc1cnccc1-c1csc2c(O)nc(-c3ccccn3)nc12` [drawing 2280], the inhibition at 30 µM lay within 76 to 100% in experiment [1] and 26 to 50% in experiment [2].

For the molecule `COc1cnc(CNC(=O)c2sc3c(O)nc(-c4ccccn4)nc3c2C)[nH]c1=O` [drawing 2351], the inhibition at 30 µM in experiment [1] and in experiment [2] was 1 to 25% each time.

Regarding `Cn1ccnc1-c1nc(O)c2scc(-c3cccc(C(F)(F)F)c3)c2n1` [drawing 2425], the inhibition at 30 µM in experiment [1] fell in the range of 76 to 100%; in experiment [2] it was 51 to 75%.

Take `COCCNc1nc(-c2cn(C)cn2)nc2sc(-c3ccccc3)c(-c3ccccc3)c12` [drawing 2410]: the inhibition at 30 µM in experiment [1] and in experiment [2] was 76 to 100% each time.

For the molecule `O=C(Nc1nnc(-c2ccccn2)[nH]1)c1csc(-c2ccco2)n1` [drawing 1994], the inhibition at 30 µM in experiment [1] is 51 to 75%; in experiment [2] it was 0%.

Turning to `CSc1nc(C2CC2)cc(C(=O)NCCc2ccc(S(=O)(=O)NC(=O)c3cc(C4CC4)nc(SC)c3C#N)cc2)c1C#N` [drawing 2067], the values for the inhibition at 30 µM in experiment [1] and in experiment [2] were 1 to 25% and 26 to 50%, respectively.

Regarding `O=C(c1csc2c(O)nc(-c3ccccn3)nc12)N1CC2CC1CN2c1ccccc1` (centres unmarked) [drawing 2231], the results for the inhibition at 30 µM in experiment [1] and in experiment [2] were 51 to 75% and 0%, respectively.

Consider `Cc1cnc(-c2ccccn2)nc1NC(=O)C(C)c1ccc(C#N)cc1` (centres unmarked) [drawing 2209], for which the inhibition at 30 µM in experiment [1] and in experiment [2] was 1 to 25% in each case.

As for `COC(=O)c1sc2c(O)nc(-c3ccccn3)nc2c1C` [drawing 2314], the inhibition at 30 µM in experiment [1] is 1 to 25%; in experiment [2] it was 0%.

With `Cc1cc(OC(F)F)ccc1-c1csc2c(O)nc(-c3ccccn3)nc12` [drawing 2270], the inhibition at 30 µM in experiment [1] was 76 to 100%; in experiment [2], 0%.

For `CCOCCC1CCN(C(=O)c2csc3c(O)nc(-c4ccccn4)nc23)CC1` [drawing 2103], the inhibition at 30 µM in experiment [1] was in the range of 76 to 100%; in experiment [2], 1 to 25%.

Regarding `N#Cc1ccc(N2CCN(C(=O)c3csc4c(O)nc(-c5ccccn5)nc34)CC2)cc1` [drawing 2182], the figures for the inhibition at 30 µM in experiment [1] and in experiment [2] were 26 to 50% and 0%, respectively.

`N#Cc1ccc(COCC(=O)Nc2nc(-c3ccccn3)nc3sccc23)cc1` [drawing 2211]: the inhibition at 30 µM in experiment [1] is 51 to 75%; in experiment [2], 1 to 25%.

For the molecule `Cc1ccc(CC(=O)Nc2nnc(-c3ccccn3)[nH]2)s1` [drawing 1975], the inhibition at 30 µM is 1 to 25% in experiment [1] and 0% in experiment [2].

As for `O=C(COCc1ccccc1Cl)Nc1nnc(-c2ccccn2)[nH]1` [drawing 1973], the inhibition at 30 µM is 26 to 50% in experiment [1] and 1 to 25% in experiment [2].

Take `Cc1nc(-c2ccccn2)nc(O)c1CCC(=O)NCC1COc2ccccc2O1` (centres unmarked) [drawing 2035]: the inhibition at 30 µM was 0% in experiment [1] and 1 to 25% in experiment [2].

For the molecule `COCCNc1nc(-c2nccn2C)nc2sc(-c3ccccc3)c(-c3ccccc3)c12` [drawing 2362], the values for the inhibition at 30 µM in experiment [1] and in experiment [2] were 51 to 75% and 26 to 50%, respectively.

In the case of `O=C(Cc1ccc2c(c1)OCO2)Nc1nnc(-c2ccccn2)[nH]1` [drawing 1996], the inhibition at 30 µM is 26 to 50% in experiment [1] and 1 to 25% in experiment [2].

Take `CN(CC(=O)N1CCCc2c(O)nc(-c3ccccn3)nc21)S(=O)(=O)c1ccccc1` [drawing 2074]: the inhibition at 30 µM was 1 to 25% in experiment [1] and 0% in experiment [2].

On to `Cn1ccnc1-c1nc(O)c2sc(-c3ccccc3)c(-c3cccc(C(F)(F)F)c3)c2n1` [drawing 2419], for which the inhibition at 30 µM in experiment [1] and in experiment [2] was 26 to 50% each time.

On to `CN(CC(=O)Nc1nnc(-c2ccccn2)[nH]1)Cc1ccccc1` [drawing 1988], for which the values for the inhibition at 30 µM in experiment [1] and in experiment [2] were 26 to 50% and 1 to 25%, respectively.

On to `O=C(Nc1nnc(-c2ccccn2)[nH]1)c1ccn(-c2cccc(F)c2)n1` [drawing 1938], for which the inhibition at 30 µM is 26 to 50% in experiment [1] and 0% in experiment [2].

Take `COc1ccc(N2CCN(C(=O)c3csc4c(O)nc(-c5ccccn5)nc34)CC2)c(OC)c1` [drawing 2184]: the inhibition at 30 µM in experiment [1] was 76 to 100%; in experiment [2] it was 0%.

For `COc1ccc(COCC(=O)N2CCCc3c(O)nc(-c4ccccn4)nc32)cc1` [drawing 2072], the inhibition at 30 µM in experiment [1] fell in the range of 51 to 75%; in experiment [2], 1 to 25%.

`COc1ccc(F)cc1-c1csc2c(O)nc(-c3ccccn3)nc12` [drawing 2266]: the inhibition at 30 µM in experiment [1] was 76 to 100%; in experiment [2], 26 to 50%.

On to `Oc1nc(-c2ccccn2)nc2c(-c3ccc4c(c3)CCCO4)csc12` [drawing 2294], for which the inhibition at 30 µM in experiment [1] was 1 to 25%; in experiment [2], 0%.

With `CC(C)Oc1ccc(-c2csc3c(O)nc(-c4nccn4C)nc23)cc1F` [drawing 2436], the figures for the inhibition at 30 µM in experiment [1] and in experiment [2] were 1 to 25% and 0%, respectively.

Take `CC(C)COc1ccc(-c2c(-c3ccccc3)sc3c(O)nc(-c4nccn4C)nc23)cn1` [drawing 2414]: the inhibition at 30 µM in experiment [1] lay in the range of 51 to 75%; in experiment [2], 1 to 25%.

`O=c1nc(-c2ccccn2)[nH]c2ccsc12` [drawing 2027]: the results for the inhibition at 30 µM in experiment [1] and in experiment [2] were 1 to 25% and 0%, respectively.

In the case of `O=C(Cn1cnc2ccccc2c1=O)Nc1nc(-c2ccccn2)cs1` [drawing 2015], the inhibition at 30 µM in experiment [1] lay within 51 to 75%; in experiment [2], 1 to 25%.

Take `O=C(COc1ccccc1)Nc1nnc(-c2ccccn2)[nH]1` [drawing 1993]: the inhibition at 30 µM in experiment [1] was 1 to 25%; in experiment [2], 0%.

Consider `CCOCCC1CCN(C(=O)c2csc3c(O)nc(N)nc23)CC1` [drawing 2091], for which the inhibition at 30 µM in experiment [1] is 0%; in experiment [2], 1 to 25%.

On to `COc1ccc(-c2cc3nc(-c4ccccn4)nc(O)c3s2)cc1` [drawing 2390], for which the values for the inhibition at 30 µM in experiment [1] and in experiment [2] were 0% and 1 to 25%, respectively.

As for `COCc1ccc(-c2csc3c(O)nc(-c4ccccn4)nc23)cc1F` [drawing 2239], the inhibition at 30 µM was in the range of 76 to 100% in experiment [1] and 51 to 75% in experiment [2].

Turning to `COc1ccccc1C1CN(C(=O)c2csc3c(O)nc(-c4ccccn4)nc23)CCO1` (centres unmarked) [drawing 2192], the inhibition at 30 µM is 76 to 100% in experiment [1] and 51 to 75% in experiment [2].

For `COCCOCCN(C)C(=O)c1csc2c(O)nc(-c3ccccn3)nc12` [drawing 2113], the inhibition at 30 µM in experiment [1] is 26 to 50%; in experiment [2] it was 0%.

With `CC(C)(C)c1sc2c(O)nc(-c3ccccn3)nc2c1Br` [drawing 2381], the inhibition at 30 µM is 0% in experiment [1] and 1 to 25% in experiment [2].

In the case of `COCCNc1nc(-c2nccn2C)nc2sc(-c3ccccc3)c(-c3ccncc3)c12` [drawing 2423], the values for the inhibition at 30 µM in experiment [1] and in experiment [2] were 51 to 75% and 1 to 25%, respectively.

`O=C(Nc1nc(-c2ccccn2)cs1)C1COc2ccccc2O1` (centres unmarked) [drawing 2007]: the inhibition at 30 µM in experiment [1] was 0%; in experiment [2] it was 1 to 25%.

On to `COc1ccnc(-c2nc(O)c3ccsc3n2)c1` [drawing 2166], for which the inhibition at 30 µM in experiment [1] and in experiment [2] was 1 to 25% throughout.

For `COCCCC(=O)N1CCCc2c(O)nc(-c3ccccn3)nc21` [drawing 2080], the figures for the inhibition at 30 µM in experiment [1] and in experiment [2] were 76 to 100% and 1 to 25%, respectively.

`Oc1nc(-c2ccccn2)nc2c(-c3cncc(F)c3)csc12` [drawing 2302]: the results for the inhibition at 30 µM in experiment [1] and in experiment [2] were 51 to 75% and 0%, respectively.

Turning to `CC(O)CNc1nc(-c2nccn2C)nc2sc(-c3ccccc3)c(-c3ccccc3)c12` (centres unmarked) [drawing 2396], the inhibition at 30 µM in experiment [1] was 26 to 50%; in experiment [2], 0%.

On to `Cc1cnc(-c2ccccn2)nc1NC(=O)C1CCCc2cc(C#N)ccc21` (centres unmarked) [drawing 2220], for which the inhibition at 30 µM in experiment [1] lay within 76 to 100%; in experiment [2], 51 to 75%.

Regarding `O=C(c1csc2c(O)nc(-c3ccccn3)nc12)N1CCN(c2cccc(F)c2)CC1` [drawing 2179], the inhibition at 30 µM in experiment [1] is 76 to 100%; in experiment [2] it was 0%.

In the case of `CC(=O)N1CCN(c2nc(-c3ccccn3)nc3scc(-c4ccccc4)c23)CC1` [drawing 2162], the inhibition at 30 µM in experiment [1] and in experiment [2] was 26 to 50% in each case.

With `O=S1(=O)CCC(Nc2nc(-c3ccccn3)nc3scc(-c4ccccc4)c23)C1` (centres unmarked) [drawing 2152], the inhibition at 30 µM in experiment [1] is 1 to 25%; in experiment [2], 0%.

As to `Cc1cccc(C)c1OCCOC(=O)c1ccccc1SCCOc1c(C)cccc1C` [drawing 2069], the results for the inhibition at 30 µM in experiment [1] and in experiment [2] were 1 to 25% and 0%, respectively.

In the case of `Cc1sc2c(O)nc(-c3ccccn3)nc2c1-c1cccnc1` [drawing 2306], the values for the inhibition at 30 µM in experiment [1] and in experiment [2] were 51 to 75% and 0%, respectively.
